Measurements as given in patent US6465716B2, “Nod factor binding protein from legume roots” (The Regents of the University of California, priority 1997, dated 2002).
One block for each molecule: values may come before it.

Experiments:
NBP46 [1] = target: T1, NBP46 (Vigna unguiculata, UniProt Q9XFC9); test: phosphatase (phosphohydrolase) assay of NBP46; type: biochemical, Dolichos biflorus; settings: in words; for hydrolysis of phosphate from substrate by NBP46 (phosphohydrolase activity): substrate specificity
Description: (§1) The sequence similarities found between NBP46 and the above enzymes prompted the testing of NBP46 for phosphohydrolase activity. The reactions were conducted in 300 μL of 60 mM MOPS, pH 6.8, containing 1 mM MgCl2 in a microtiter plate using a multichannel pipette. At various time points up to 4 minutes, 30 or 60 μL aliquots were removed and assayed for inorganic phosphate by a photometric microtiter assay (Drueckes, P., et al., Anal. Biochem. 230:173 (1995)). Conditions were chosen so that less than 10% of the total substrate was converted to product, and the initial velocity (v) was determined from the above rate measurements.
(§2) N-BP46 (201 ng/ml) was incubated at 25° C. in the presence of various concentrations of substrate in a final volume of 100 μl of 60 mM MOPS, pH 6.8, containing 1 mM MgCl2. The reactions were conducted in a microtiter plate using a multichannel pipette. At various time points, 30 μl aliquots were removed and assayed for inorganic phosphate by a photometric microtiter assay (Drueckes, P. et al. Anal. Biochem. 230:173 (1995)), modified by using four parts ammonium molybdate reagent to one part 10% ascorbate for the reagent mixture. Conditions were chosen so that less than 10% of the total substrate was converted to product.

NBP46 [2] = target: T1, NBP46; test: competitive binding assay with chitin as solid phase: inhibition of binding of 125I-NBP46 to chitin; parameters: species or system Dolichos biflorus; settings: for inhibition of binding of 125I-NBP46 to chitin: relative inhibition, in words
Description: B. japonicum USDA110 Nod factor (^▪); R. sp. NGR234(NGRA) Nod factor (^▴); R. sp. NGR234(NGRB) Nod factor (∇); R. meliloti Nod factor (^●), N-acetylglucosamine (□), chitin disaccharide (^▾); chitin tetrasaccharide (Δ); chitin pentasaccharide (♦), chitin hexasaccharide (O).
Using chitin as a solid phase, a competitive binding assay was utilized to examine the carbohydrate specificity of this protein (FIG. 3).
Solid phase binding assays were conducted using iodinated NBP46 and purified shrimp chitin powder (Sigma Chemical Company, St. Louis, Mo.), which was N-acetylated prior to use with 15 mM acetic anhydride in 0.5 M NaHCO3 for one hour at room temperature. The assays were conducted in a final volume of 100 μl of 10 mM MOPS buffer, pH 7.2, containing 0.02% Tween-20 and 0.01% NaN3.

NBP46 [3] = target: T1, NBP46; test: competitive solid phase assay: inhibition of binding of 125I-NBP46 to HBG A+H-Sepharose; parameters: species or system Dolichos biflorus; settings: up to 50 mM concentrations
Text: In a preferred embodiment, a competitive solid phase assay is used to measure NBP46 activity (Etzler, M. E., Glycoconj. J. 11:395 (1994)). This assay measures the ability of various ligands to inhibit the binding of labeled NBP46 protein to pronase-digested hog gastric mucin blood group A+H substance (HBG A+H) conjugated to Sepharose® (Quinn, J. M. & Etzler, M. E., Arch. Biochem. Biophys. 258:535 (1987)).
The monomeric nature of NBP46 in solution precluded the use of conventional precipitin or agglutination assays in determining the carbohydrate binding specificity of this lectin. Therefore a complex carbohydrate binding assay was employed (Etzler, M. E., Glycoconj. J. 11:395 (1994)).
Hog blood group A+H substance was isolated from hog gastric mucin (Etzler, M. E., Glyconj. J. 11:395 (1994)) and de-N-acetylated as described in Etzler, M. E., et al., Arch. Biochem. Biophys. 141:588 (1970). After incubation at room temperature overnight, binding was measured as previously described (Etzler, M. E., Glyconj. J. 11:395 (1994)).

[4] = substrate: Nc1ncnc2c1ncn2[C@@H]1O[C@H](COP(=O)(O)OP(=O)(O)O)[C@@H](O)[C@H]1O; test: phosphatase (phosphohydrolase) assay of NBP46; type: biochemical, Dolichos biflorus; settings: other: 60 mM MOPS, pH 6.8, 1 mM MgCl2, 25.0 °C
Description: as §1, §2

hydrolysis of phosphate from substrate by NBP46 (phosphohydrolase activity) (NBP46 [1]): catalyzes the hydrolysis of phosphate
Molecule: Nc1ncnc2c1ncn2[C@@H]1O[C@H](COP(=O)(O)OP(=O)(O)O)[C@@H](O)[C@H]1O [ADP]

hydrolysis of phosphate from substrate by NBP46 (phosphohydrolase activity) (NBP46 [1]): no activity
Molecule: Nc1ncnc2c1ncn2[C@@H]1O[C@H](COP(=O)(O)O)[C@@H](O)[C@H]1O [AMP]

Molecule: Nc1ncnc2c1ncn2[C@@H]1O[C@H](COP(=O)(O)OP(=O)(O)OP(=O)(O)O)[C@@H](O)[C@H]1O [ATP]
hydrolysis of phosphate from substrate by NBP46 (phosphohydrolase activity) (NBP46 [1]): catalyzes the hydrolysis of phosphate

Molecule: Nc1ccn([C@@H]2O[C@H](COP(=O)(O)OP(=O)(O)OP(=O)(O)O)[C@@H](O)[C@H]2O)c(=O)n1 [CTP]
hydrolysis of phosphate from substrate by NBP46 (phosphohydrolase activity) (NBP46 [1]): broad specificity for nucleotide triphosphates

Molecule: Nc1nc2c(ncn2[C@@H]2O[C@H](COP(=O)(O)OP(=O)(O)OP(=O)(O)O)[C@@H](O)[C@H]2O)c(=O)[nH]1 [GTP]
hydrolysis of phosphate from substrate by NBP46 (phosphohydrolase activity) (NBP46 [1]): broad specificity for nucleotide triphosphates

inhibition of NBP46 binding to chitin (NBP46 [2]; concentrations up to 50 mM): No significant inhibition
inhibition of binding of 125I-NBP46 to HBG A+H-Sepharose (NBP46 [3]): no significant inhibition
Molecule: C[C@H](O)[C@@H](O)[C@@H](O)[C@H](O)C=O [L-fucose]

inhibition of binding of 125I-NBP46 to HBG A+H-Sepharose (NBP46 [3]): no significant inhibition
Molecule: CC(=O)N[C@H]1C(O)O[C@H](CO)[C@H](O)[C@@H]1O (stereo partly drawn) [N-acetyl-D-galactosamine]

Molecule: CC(=O)N[C@@H]1[C@@H](O)[C@H](O)[C@@H](CO)O[C@H]1O [N-acetyl-D-glocosamine]
inhibition of binding of 125I-NBP46 to chitin (NBP46 [2]): Inhibition of binding was obtained with high concentrations
phosphatase activity / Vmax of NBP46 after preincubation with ligand (NBP46 [1]; concentration range as worded): increase in enzyme activity is also obtained with low millimolar concentrations

Molecule: O=c1ccn([C@@H]2O[C@H](COP(=O)(O)OP(=O)(O)OP(=O)(O)O)[C@@H](O)[C@H]2O)c(=O)[nH]1 [UTP]
hydrolysis of phosphate from substrate by NBP46 (phosphohydrolase activity) (NBP46 [1]): broad specificity for nucleotide triphosphates

Molecule: CC(=O)N[C@H]1[C@H](O[C@H]2[C@H](O)[C@@H](NC(C)=O)C(O)O[C@@H]2CO)O[C@H](CO)[C@@H](O)[C@@H]1O (stereo partly drawn) [chitin disaccharide]
inhibition of binding of 125I-NBP46 to chitin (NBP46 [2]): approximately ten-fold better inhibition than the monosaccharide

Molecule: CC(=O)NC1C(O)OC(CO)C(OC2OC(CO)C(OC3OC(CO)C(OC4OC(CO)C(OC5OC(CO)C(OC6OC(CO)C(O)C(O)C6NC(C)=O)C(O)C5NC(C)=O)C(O)C4NC(C)=O)C(O)C3NC(C)=O)C(O)C2NC(C)=O)C1O (stereo not drawn) [chitin hexasaccharide]
inhibition of binding of 125I-NBP46 to chitin (NBP46 [2]): slightly better inhibitors than the disaccharide

Molecule: CC(=O)N[C@@H]1[C@@H](O)[C@H](O[C@@H]2O[C@H](CO)[C@@H](O[C@@H]3O[C@H](CO)[C@@H](O[C@@H]4O[C@H](CO)[C@@H](O[C@@H]5O[C@H](CO)[C@@H](O)[C@H](O)[C@H]5NC(C)=O)[C@H](O)[C@H]4NC(C)=O)[C@H](O)[C@H]3NC(C)=O)[C@H](O)[C@H]2NC(C)=O)[C@@H](CO)O[C@H]1O [chitin pentasaccharide]
inhibition of binding of 125I-NBP46 to chitin (NBP46 [2]): slightly better inhibitors than the disaccharide

inhibition of NBP46 binding to chitin (NBP46 [2]; concentrations up to 1.2 mM): No significant inhibition
Molecule: CCCCCC/C=C\CCCCCCCCCC(=O)O [cis-vaccenic acid]

hydrolysis of phosphate from substrate by NBP46 (phosphohydrolase activity) (NBP46 [1]): no activity
Molecule: O=C[C@H](O)[C@@H](O)[C@H](O)[C@H](O)COP(=O)(O)O [glucose-6-phosphate]

Molecule: O=P(O)(O)OP(=O)(O)O [pyrophosphate]
hydrolysis of phosphate from substrate by NBP46 (phosphohydrolase activity) (NBP46 [1]): no activity

B1: NBP46 (Vigna unguiculata subsp. cylindrica) (protein)
chain: QYVGNSILLNHRKILPNQELLTSYAVIFDAGSSGSRVHVFNFDQNLDLLHIGNDLEFTKKIKPGLSSYADKPEKAAESLIPLLEEAEDVVPEELHPKTPLKLGATAGLRLLDGDAAEKILQAVREMFRNRSSLSVQPDAVSVIDGTQEGSYLWVTVNYLLGKLGKKFTKTVGVIDLGGASVQMAYAVSRNTAKNAPKPPQGEDPYMKKLVLKGKKYDLYVHSYLRYGNDAARVKIFKTTDGAASPCLLAGYEDIYRYSGESYNIYGPTSGANFNECRDLALQILRLNEPCSHENCTFGGIWDGGKGSGQKNLVVTSAFYYRSSEVGFVTPPNSKNRPLDFETAAKQACSLTFEEAKSTFPNVEKDKLPFVCVDFTYQYTLLVDGFGLDPEQEITVAEGIEYQDAIVETAWPLGTAIEAISSLPKFNRLMYFI
Km [4]: 615 µM
